From the supplement of paper PMC10307832

Experiments:
Experiment in all cases: relative viability (nuclei count vs DMSO), 5 days (fraction); higher = more cells survive
4EGI-1 + Lapatinib = compound: O=C(O)C(Cc1ccccc1[N+](=O)[O-])=NNc1nc(-c2ccc(Cl)c(Cl)c2)cs1 (mixture of isomers) [4EGI-1] + CS(=O)(=O)CCNCc1ccc(-c2ccc3ncnc(Nc4ccc(OCc5cccc(F)c5)c(Cl)c4)c3c2)o1 [Lapatinib] (partner 2 µM)
Procedure, shortened: (§1)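 Dosing by pin tool came one day after lung cancer cell lines were seeded in 1536-well plates, using either one drug or a fixed anchor-drug dose plus five library-drug doses (not always all listed) in √10 steps. After 5 days, nuclei were counted on 4× images. Relative viability is treated-well nuclei count divided by vehicle-well nuclei count, and values are medians of duplicate plates.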

XMD8-85 + OSI-027 = compound: CN1CCN(CC1)C2=CC(=C(C=C2)NC3=NC=C4C(=N3)N(C5=CC=CC=C5C(=O)N4C)C)OC [XMD8-85] + COc1cccc2cc(-c3nc([C@H]4CC[C@H](C(=O)O)CC4)n4ncnc(N)c34)[nH]c12 [OSI-027] (partner 0.5 µM)
Procedure, shortened: as §1

XMD8-85 + Pictilisib = compound: CN1CCN(CC1)C2=CC(=C(C=C2)NC3=NC=C4C(=N3)N(C5=CC=CC=C5C(=O)N4C)C)OC [XMD8-85] + CS(=O)(=O)N1CCN(Cc2cc3nc(-c4cccc5[nH]ncc45)nc(N4CCOCC4)c3s2)CC1 [Pictilisib] (partner 1 µM)
Procedure, shortened: as §1

4EGI-1 + Dasatinib = compound: O=C(O)C(Cc1ccccc1[N+](=O)[O-])=NNc1nc(-c2ccc(Cl)c(Cl)c2)cs1 (mixture of isomers) [4EGI-1] + Cc1nc(Nc2ncc(C(=O)Nc3c(C)cccc3Cl)s2)cc(N2CCN(CCO)CC2)n1 [Dasatinib] (partner 0.075 µM)
Procedure, shortened: as §1

Cell Line	relative viability (4EGI-1 + Lapatinib; first compound 0.5 µM)	relative viability (4EGI-1 + Lapatinib; first compound 1.581 µM)	relative viability (4EGI-1 + Lapatinib; first compound 5 µM)	relative viability (4EGI-1 + Lapatinib; first compound 15.81 µM)	relative viability (4EGI-1 + Lapatinib; first compound 50 µM)	relative viability (XMD8-85 + OSI-027; first compound 0.08 µM)	relative viability (XMD8-85 + OSI-027; first compound 0.253 µM)	relative viability (XMD8-85 + OSI-027; first compound 0.8 µM)	relative viability (XMD8-85 + OSI-027; first compound 2.53 µM)	relative viability (XMD8-85 + OSI-027; first compound 8 µM)	relative viability (XMD8-85 + Pictilisib; first compound 0.08 µM)	relative viability (XMD8-85 + Pictilisib; first compound 0.253 µM)	relative viability (XMD8-85 + Pictilisib; first compound 0.8 µM)	relative viability (XMD8-85 + Pictilisib; first compound 2.53 µM)	relative viability (XMD8-85 + Pictilisib; first compound 8 µM)	relative viability (4EGI-1 + Dasatinib; first compound 0.5 µM)	relative viability (4EGI-1 + Dasatinib; first compound 5 µM)	relative viability (4EGI-1 + Dasatinib; first compound 15.81 µM)	relative viability (4EGI-1 + Dasatinib; first compound 50 µM)	relative viability (4EGI-1 + Dasatinib; first compound 1.581 µM)
HCC-78	0.842	0.551	0.752	0.788	0.947	0.367	0.334	0.391	0.35	0.286	0.267	0.22	0.228	0.206	0.192	0.41	0.383	0.34	0.357	
HCC-366	1.03	0.632	1.02	1.03	0.134	0.932	1.15	1.08	0.917	0.794	0.137	0.239	0.146	0.168	0.304	0.772	0.629	0.67	0.308	0.587
HCC-827	0.197	0.201	0.15		0.168	0.831	0.789	0.714	0.939	1	1.16	1.03	0.902	1.11	1.15	0.346	0.345	0.127	0.261	0.246
HOP-62	1.06		1.08	0.961	0.362	0.806	0.867	0.842	0.845	0.436	0.734	0.723	0.858	0.559	0.232	0.796	0.668	0.568	0.473	0.587
IA-LM	0.886	0.589	0.581	0.109	0.0728						0.342	0.187	0.334	0.193	0.143					
LC-2-ad	0.988	0.89	0.942	0.228	0.175	0.745	0.859	0.794	0.779	0.613	0.433	0.497	0.543	0.483	0.276	0.697	0.651	0.199	0.161	
LCLC-97TM1	1.28		1.16	0.801	0.274	0.485		0.623	0.565	0.536	0.181	0.22	0.248	0.173	0.177	0.733	0.873	0.878	0.739	0.708
LCLC-103H						0.428	0.441	0.487		0.404	0.606	0.615	0.66	0.598	0.462	0.531	0.503	0.523	0.236	0.503
LK-2	1.04		0.978	0.984	0.745	0.167	0.196	0.185	0.192	0.162	0.531	0.439	0.574	0.361	0.458	0.253	0.309	0.254	0.134	
LOU-NH91	0.807		0.822	0.787	0.552	0.705	0.735	0.672	0.827		0.52	0.566	0.526	0.516	0.471	0.569	0.505	0.378	0.458	
LU99A	1.04		1.08	0.739	0.214	0.264	0.31	0.306	0.33	0.258	0.32	0.302	0.339	0.367	0.33	0.615	0.54	0.449	0.235	0.405
LXF-289	0.893	0.912	0.893	0.763	0.677	0.758	0.915	0.852	0.936	0.579	0.682		0.82	0.874	0.781	0.282	0.249	0.188	0.102	0.215
NCI-H23	1.24		1.09	1.13	0.43	0.589	0.692	0.614	0.654	0.409	0.486	0.508	0.524	0.523	0.426	0.896	0.85	0.79	0.496	
NCI-H322M	0.617	0.558	0.637	0.566	0.427	0.506		0.571	0.504	0.37	0.551	0.501	0.502	0.527	0.409	0.23	0.243	0.237	0.256	
NCI-H441						0.522	0.65	0.654	0.699	0.68	0.405	0.389	0.608	0.438	0.389	0.609	0.536	0.565	0.229	0.547
NCI-H522						0.659	0.747	0.66	0.828	0.596						1.02	0.858	0.893	0.556	0.735
NCI-H1299	0.932	0.957	1.02	0.987	0.357						0.651	0.908	0.874	0.643	0.367					
NCI-H1623						0.44	0.395	0.349	0.413	0.368						0.507	0.575	0.437	0.414	0.446
NCI-H1648						0.248	0.268			0.228										
NCI-H1703	1.46	0.955	1.17	1.22	0.437						0.236	0.234	0.269	0.229	0.196					
NCI-H2342						0.606	0.605		0.594	0.641						0.299	0.292	0.292	0.257	0.3
SW 900						0.583	0.623	0.581	0.553	0.304						0.641	0.528	0.487	0.547	
